These results are taken from patent publication US12023348B2, “EGR1 targeting molecules for the treatment of inflammatory and hyperproliferative conditions” (The Medical Research, Infrastructure and Health Services …, priority 2015, dated 2024).

In data set [1] the test system is human psoriatic skin graft. Kind of data set: Chimeric mice carrying human psoriatic skin. The class given is in vivo. To be noted: for Clinical and histological psoriasiform phenotype (average improvement score) / Overt toxicity / Epidermal thickness / Keratinocyte proliferation (Ki67): i.p. five times a week; for Clinical and histological psoriasiform phenotype (average improvement score) / Overt toxicity: 10 days; for Clinical and histological psoriasiform phenotype (average improvement score): ApDx 5 mg/kg (p<0.0001), CaCx 15 mg/kg (p<0.05) (FIG. 6); for Overt toxicity / Epidermal thickness / Keratinocyte proliferation (Ki67): ApDx 5 mg/kg or CaCx 15 mg/kg; for Epidermal thickness / Keratinocyte proliferation (Ki67): biopsies after 10 days (FIGS. 7A-F, 8). An excerpt: Chimeric mice carrying human psoriatic skin were generated using SCID mice, 2-3 months of age. Animals were maintained in a pathogen-free animal facility. A psoriasis-like phenotype was induced in normal human skin grafted onto the mice by intradermal injection of natural killer/T cells derived from psoriatic patients as previously described [Gilhar A et al. J Invest Dermatol (2011) 131: 118-124].
Formaldehyde-fixed 5-μm paraffin-embedded sections from skin biopsies were deparaffinized and treated with 3% H2O2 in methanol for 15 minutes at room temperature, warmed in a microwave oven in citrate buffer in a pressure cooker for 25 minutes, and stained with a monoclonal anti-Ki67 antibody (Thermo Scientific) for 1 hour at room temperature. Following 3 washings (10 minutes each) with phosphate-buffered saline (PBS), the antibodies were imaged using the ABC technique (Zymed Laboratories, South San Francisco, CA) and the slides were counterstained with hematoxylin.
Epidermal thickness was defined as the distance between the granular layer and the basement membrane and was measured at 10 randomly selected locations for each biopsy using NIS-Elements BR 3.2 software (Nikon, NY USA). An image was taken and was manually measured in the software by selecting an upper and lower border, as defined above. The distance was measured in microns.
(§1) RNA was extracted from cell cultures using an RNA extraction kit (Roche Diagnostics, Mahheim, Germany). cDNA was synthesized from 500 ng of total RNA using the Verso cDNA kit (Thermo Fisher Scientific, Waltham, MA, USA). cDNA PCR amplification was carried out using the Fast SYBR Green Master Mix in a StepOnePlus™ Real-Time PCR System (Applied Biosystems, Foster City, CA, USA) with gene-specific intron-crossing oligonucleotide pairs listed in Table 1 (below). For quantification, standard curves were obtained using serially diluted cDNA amplified in the same qRT-PCR run. The melting temperature (Tm) of the amplified products was measured to confirm the specificity of the reaction conditions. Cycling conditions were as follows: 95° C. for 10 minutes, 95° C. for 10 seconds, 62° C. for 15 seconds, and 72° C. for 25 seconds for a total of 40 cycles. Each sample was analyzed in triplicate. mRNA expression level for target gene was normalized to GAPDH. The results are based the amount of target, normalized to an endogenous reference (IACTB) and relative to a calibrator, as calculated by 2-ΔΔCT. All samples were run in triplicate. The expression levels of target genes were expressed as mRNA relative units.
To assess the potential therapeutic role of the compounds (ApDx and CaCx) of some embodiments of the invention, the two compounds were administered systemically (i.p) to chimeric mice carrying human psoriatic skin. In short, SCID mice, 2-3 months of age, were maintained in a pathogen-free animal facility. A psoriasis-like phenotype was induced in normal human skin grafted onto the mice by intradermal injection of natural killer/T cells derived from psoriatic patients as previously described [Gilhar A et al. J Invest Dermatol (2011) 131: 118-124]. Two weeks after natural killer/T-cell injection (6 weeks after human skin grafting), mice were injected i.p. five times a week. Four groups of mice were treated as follows: one group of mice was injected five times a week with the vehicle; a second group of mice was injected five times a week ApDx (5 mg/kg); a third group of mice was injected five times a week CaCx (15 mg/kg); and a fourth group of mice, was treated with dexamethasone (DEX) cream applied 5 times a week on the graft, as positive control (DEX was expected to attenuate inflammation in this model). Each group included five mice, and the treatment was performed for a total of 10 days. The grafts were harvested from the four groups of mice, paraffin-embedded, stained for hematoxylin and eosin (H&E), analyzed and scored for the average improvement of the clinical and histological psoriasiform phenotype.

The subject of the next data set is SAMD9. Kind of data set: SAMD9 RNA expression by qRT-PCR in TERC-transformed fibroblasts. The class given is cell-based, human. Conditions: 5 μM, 24 hours, qRT-PCR vs DMSO (FIG. 1C). The protocol:
TERC-transformed fibroblasts were transformed with a pBABE-H2AGFP construct containing the human telomerase gene were cultured High Glucose DMEM, 10% FCS, L-glutamine and Pen-Strep (all cell culture regents from Biological Industries, Israel). Medium was changed every 2-3 days. Cells were used at passage 2-3.
(§2) Of note, when cells were incubated with CaCx and ApDx (NCI, MA USA), they were grown in the appropriate medium with 0.1% FCS only.
as §1, with “Cycling conditions were as follows: 95° C. for 10 minutes, 95° C. for 10 seconds, 62° C. for 15 seconds, and 72° C. for 25 seconds for a total of 40 cycles.” left out, “All samples were run in triplicate. The expression levels of target genes were expressed as mRNA relative units.” left out

The test system of the next data set is EGR1. Kind of data set: EGR1 RNA expression by qRT-PCR in primary fibroblasts. It counts as cell-based, human. To be noted: 5 μM over 72 hours, different time points (FIG. 3). The protocol:
Primary fibroblasts were isolated from human adult skin and were grown in High Glucose DMEM, 10% Fetal Bovine Serum, L-glutamine and Pen-Strep. Medium was changed every 2-3 days. Cells were used at passage 2-3.
as §2
as §1, with “Cycling conditions were as follows: 95° C. for 10 minutes, 95° C. for 10 seconds, 62° C. for 15 seconds, and 72° C. for 25 seconds for a total of 40 cycles.” left out, “All samples were run in triplicate.” left out

Consider `Cc1c2ccnc(C(N)=O)c2c(C)c2c1[nH]c1ccccc12.Cl` [Compound 335142, 6H-Pyrido[4,3-b]carbazole-1-carboxamide, 5,11-dimethyl-, monohydrochloride], for which, in data set [1], the “Clinical and histological psoriasiform phenotype (average improvement score)” value was “significant clinical and histological attenuation”; the Overt toxicity result is “No overt toxicity”; the Epidermal thickness entry is “significant decrease”; the “Keratinocyte proliferation (Ki67)” value was “significant decrease”. Also, the “EGR1 RNA levels in treated skin” value in data set [1] (quantitative PCR vs vehicle group (FIG. 9), CaCx 15 mg/kg i.p.) is listed as “significant decrease”. The “SAMD9 expression in TERC-transformed fibroblasts” value in the data set on SAMD9 is “significantly induce”. Also, the “EGR1 expression in primary fibroblast cells” value in the data set with EGR1 is reported as “significantly down-regulated”.
On to `CCCN1c2ccc(N)cc2S(=O)(=O)c2cc(Cl)cc(Cl)c21` [Compound 629971, 7,9-dichloro-5,5-dioxo-10-propylphenothiazin-3-amine], for which, in data set [1], the “Clinical and histological psoriasiform phenotype (average improvement score)” value is “significant clinical and histological attenuation”; the Overt toxicity result is given as “No overt toxicity”; the Epidermal thickness result is reported as “significant decrease”; the “Keratinocyte proliferation (Ki67)” value is “significant decrease”. Besides, the “SAMD9 expression in TERC-transformed fibroblasts” value with SAMD9 is given as “significantly induce”. The “EGR1 expression in primary fibroblast cells” value in the data set with EGR1 was “significantly down-regulated”.
